Key:
[1] = test system: granulocytes and endothelial cells; test: Granulocyte/endothelial cell interaction, intravital microscopy of mesentery microvessels; type: in vivo, rat; details: superfusion with 20 μM, approximately 2 μM in the vessel
Description: The parameter measured was the fracture stress between the two cell types.
These studies were performed by intravital microscopy filming of granulocytes in rat mesentary microvessels. The rolling velocity of granulocytes compared to the streaming velocity of red cells was calculated before and after the administration of adenosine.

[2] = test system: HPRT- neuroblastoma cells; test: Adenosine excretion by ionophore-stimulated HPRT- neuroblastoma cells; type: cell-based; details: pretreatment
Description: (§1) The history and properties of the cell line have been described by Hershfield et al. in Science, Vol. 197, p. 1284, 1977.
(§2) Catabolism of cellular ATP stores was stimulated by adding either 2-deoxyglucose or a calcium ionophore. At various times, the amount of adenosine released by the cells into the supernatant, or the amount of nucleotides remaining in the cells, was determined by mixing 30 μl of chilled 4.4N perchloric acid with 300 μl of supernatants, or by adding 300 μl of chilled 0.4N perchloric acid to the cells collected as pellets and centrifuging the mixtures at 500×G for 10 minutes at 4° C. […] 1245, 1975. Following centrifugation at 1500×G for three minutes at 4° C., the aqueous phase is removed and frozen at -20° C. until assayed for adenosine, inosine, or for nucleotides. Adenosine was evaluated isocratically on a C-18 microBondapak reverse phase column equilibrated with 4 millimolar potassium phosphate, (pH 3.4):acetonitrile 60% in water (95:5 v/v) buffer. Adenosine elutes at 8-10 minutes, and its identity was confirmed by its sensitivity to adenosine deaminase and by spiking with adenosine standards. The extracted samples from the cell pellet were analyzed for nucleotides by high pressure liquid chromatography on a Whatman Partisil-10 (SAX) column equilibrated with 10 millimolar potassium phosphate, pH 3.78, and eluted with a linear gradient to a 0.25 molar potassium phosphate, 0.5 molar KCl, pH 3.45. […] Peaks were quantitated by comparison with high pressure liquid chromatography analysis of suitable standards.
To induce ATP catabolism, the growth medium was replaced by medium containing micromolar amounts of the calcium ionophore A23187 and 1.0 μM deoxycoformycin.

[3] = test system: Mouse bone marrow-derived mast cells; type: cell-based
Description: By preventing mast cell degranulation, it is possible to prevent or control a patient's allergic response. Bone marrow obtained from Balb/C mice femurs was cultured in a 1:1 mixture of Razin media and conditioned media, produced by co-culturing splenocytes from C57B1/6J and C3H mice in the presence of Concanavalin A as described by Razin et al. in the Proc. Natl. Acad. Sci. USA 28: 2559-2561, 1981. After weekly passaging and at least 15 days in tissue culture, the resulting cells were 90% pure mast cells and 95% viable as assessed by Trypan blue exclusion. Cells exposed to ribavirin in culture were washed three times prior to use in experiments. Parallel cultures of cells grown in media alone were used as controls for pharmacologically manipulated mast cells. Cell growth was assessed by counting cells at particular time points and comparing actual numbers of ribavirin-treated cells to numbers of cells grown in media alone.
β-hexosaminidase was chosen as a representative granule-associated, preformed mast cell mediator because it is easily quantitated, and its release nearly identically parallels that of histamine. Mouse bone marrow-derived mast cells were centrifuged at 200×g for 5 minutes, washed three times in Tyrode's buffer lacking divalent cations, sensitized for 30 minutes at 37° C. with anti-DNP ([…]) IgE (1 μg/10^6 cells) and challenged with either DNP-BSA antigen (175 ng/3×10^5 cells) or A23187 (10 μg/ml/3×10^5 cells) in 400 μl of complete Tyrode's buffer for 10 minutes at 37° C. Reaction mixtures were centrifuged at 200×g for 10 minutes, and supernatant and pellet β-hexosaminidase concentrations were assayed by the hydrolysis of p-nitrophenyl-β-D-glucosamide as described in Schwartz et al. in J. Immunol. […] Spontaneous β-hexosaminidase release was determined in unchallenged cells. The net % of β-hexosaminidase released is defined as follows: [formula] where [β-hex] is β-hexosaminidase and super. is supernatant. When exogenous adenosine was present in reaction mixtures, it was added simultaneously with the secretagogue.

[4] = test system: human splenic lymphoblast cell line (WI-L2); test: Adenosine excretion by human lymphoblasts during ATP breakdown (2-deoxyglucose); type: cell-based; details: three-hour preincubation and four-hour incubation during 2-deoxyglucose treatment (FIGS. 8, 9)
Description: as §1, §2
Cells were grown to about 0.5×10^6 cells/ml (mid-log phase) in FIG. 2 and to about 1.0×10^6 cells/ml (early stationary phase) in FIGS. 7-9.

[5] = biological target: T1, AMP deaminase (Homo sapiens, UniProt Q01433); test: Inhibition of AMP deaminase (14C-AMP to 14C-IMP conversion); type: biochemical
T1 construct: endogenous in cells
T1 sequence (Q01433 1-825): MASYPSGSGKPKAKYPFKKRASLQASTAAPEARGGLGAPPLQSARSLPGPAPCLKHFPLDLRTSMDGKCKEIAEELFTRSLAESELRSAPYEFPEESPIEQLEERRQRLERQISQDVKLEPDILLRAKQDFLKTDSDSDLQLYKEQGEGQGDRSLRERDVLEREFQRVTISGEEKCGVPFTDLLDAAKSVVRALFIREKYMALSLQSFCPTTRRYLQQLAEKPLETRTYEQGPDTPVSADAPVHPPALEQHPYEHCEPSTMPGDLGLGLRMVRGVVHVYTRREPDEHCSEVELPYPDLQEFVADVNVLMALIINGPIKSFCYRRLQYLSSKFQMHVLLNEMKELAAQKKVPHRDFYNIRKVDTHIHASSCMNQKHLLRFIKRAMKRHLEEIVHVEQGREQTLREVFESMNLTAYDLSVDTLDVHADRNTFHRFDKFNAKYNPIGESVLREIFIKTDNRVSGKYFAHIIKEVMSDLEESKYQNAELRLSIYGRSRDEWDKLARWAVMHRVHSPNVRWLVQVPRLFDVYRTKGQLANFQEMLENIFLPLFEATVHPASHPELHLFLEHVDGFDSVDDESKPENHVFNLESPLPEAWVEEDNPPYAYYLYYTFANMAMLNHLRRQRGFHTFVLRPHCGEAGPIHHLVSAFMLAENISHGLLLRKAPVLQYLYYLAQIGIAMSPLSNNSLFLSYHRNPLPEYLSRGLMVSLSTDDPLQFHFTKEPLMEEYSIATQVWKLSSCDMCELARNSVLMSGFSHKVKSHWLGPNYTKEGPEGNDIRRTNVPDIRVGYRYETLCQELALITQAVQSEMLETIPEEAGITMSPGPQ
Description: The phosphorylated forms are referred to as AICA ribotide and ribavirin monophosphate, respectively. Using 200 μM of each ribotide, AMP deaminase was inhibited 38% and 54%, respectively.

In the case of `Nc1ncnc2c1ncn2[C@@H]1O[C@H](CO)[C@@H](O)[C@H]1O` [Adenosine, 9-β-D-ribofuranosyladenine], the “decrease of fracture stress between granulocytes and endothelial cells” value [1] is reported as “by a factor of two” and the “rolling velocity of granulocytes in microvessels” value [1] is reported as “twofold increase”.
With `NC(=O)c1ncn([C@@H]2O[C@H](CO)[C@@H](O)[C@H]2O)n1` [ribavirin, 1-β-D-ribofuranosyl-1H-1,2,4-triazole-3-carboxamide] the “correction of the twofold lower adenosine secretion of HPRT-deficient cells” value [2] was “can be corrected by pretreatment”, the “mast cell mediator content and cell viability” value [3] was “did not alter” and the preformed mediator release ([3]; 1 μM for six days) was “inhibits mediator release significantly”. For the same compound, the β-hexosaminidase release ([3]; 10 μM added at the time of mast cell stimulation) was “does not affect”, the “net β-hexosaminidase release versus controls” value ([3]; 1, 10, or 20 μM for six days, A23187 challenge (FIG. 11)) was “significantly less” and the “β-hexosaminidase release versus cells cultured in media alone” value ([3]; three to seven days in 10 μM, washed, A23187 challenge (FIG. 10), p<0.05) was “marked attenuation”. The “spontaneous release of β-hexosaminidase versus control cells” value ([3]; unchallenged cells) was “similar” and the “adenosine release from lymphoblasts” value [4] was “increased adenosine release”.
`NC(=O)c1ncn([C@@H]2O[C@H](COP(=O)(O)O)[C@@H](O)[C@H]2O)n1` [ribavirin monophosphate] gave an AMP deaminase inhibited ([5]; 200 μM ribotide, cytoplasmic lysates from a human lymphoblast line) of 54%.
In the case of `NC(=O)c1ncn([C@@H]2O[C@H](COP(=O)(O)O)[C@@H](O)[C@H]2O)c1N` [AICA ribotide], the inhibition at 200 µM ([5]; read-out: AMP deaminase inhibited) is reported as 38%.

From patent US4912092A, “Methods for increasing extracellular adenosine and for stabilizing mast cells” (The Regents of the University of California, priority 1987, dated 1990)
